Patent US20050042747A1, “Hivgp120-induced bob/gpr15 activation” (priority 2001, published 2005)
Entries after “also recorded” stand apart in the source; their conditions may differ.

Key:
[1] = test system: gp120-induced calcium signaling in HT-29 cells; assay: Inhibition of gp120-induced calcium signaling in HT-29 cells; format: cell-based, human; conditions: pretreatment
Method: Calcium studies were done on HT-29 cells and Ghost (3) cells loaded with Fluo 4. The cells were placed in Locke's buffer containing 5 μg/ml Fluo 4 AM ester (Molecular Probes) for 20 to 30 minutes, then in Locke's buffer for an additional 30 minutes before testing. Various concentrations of gp120IIIB (X4 trophic), gp120CM235 (R5 trophic), gp120mN (X4 trophic), gp12093TH975 (nonsyncytium-inducing primary isolate from an asymptomatic subject, trophism undetermined but likely R5), and gp120SF2 (X4R5 trophic), ranging from 10 nM to less than 1 pM, were added in Locke's buffer.^6 The gp120 proteins were obtained from the AIDS Research Reagent Referral Program. Some HT-29 cells were given one of the following pretreatments: 50 μg/ml anti-Bob37 overnight, 1 μg/ml pertussis toxin overnight, or 4.6 μg/ml U73122 for one hour. With the HT-29 cells only, similar tests were also performed with SDF-1, MIP-1α, MIP-1β, and RANTES rather than gp120. The cells were visualized every 4 seconds in a confocal microscope, using 488 nm argon laser excitation and detection filters appropriate for fluorescein-like dyes.
Blocking antibody experiments were done with HT-29 cells (monitoring calcium flux, microtubule loss, or transepithelial resistance), with Ghost (3) Bob cells (monitoring calcium flux) and peripheral blood mononuclear cells (monitoring calcium flux and HIV infection). Specifics of these protocols and the specific results are given herein. […] Antibody concentrations of 40 to 50 micrograms/ml overnight were needed for maximal effect.
For the first two or three days after plating, gp120 induces an immediate (within 4 seconds) calcium flux in undifferentiated HT-29 cells. The cells had previously been loaded with Fluo-4 AM ester (Molecular Probes, Eugene Oreg.) 5 micrograms/ml in the presence of Pleuronic F-127 0.02% in Locke's buffer for 30 minutes, then incubated at room temperature for an additional 30 minutes. Gp120IIIB was added while the cells were on an inverted confocal microscope using a 488 nm argon laser, with detection filters suitable for fluorescein-like dyes. […]

[2] = test system: microtubules in HT-29 cells; assay: Microtubule staining (acetylated tubulin) in HT-29 cells; format: cell-based, human; conditions: pretreatment before gp120
Method: To examine the microtubules, HT-29 cells were treated with 10 nM gp120CM235 or 50 pM gp120IIIB, then fixed one hour later in 4 g/100 ml paraformaldehyde PBS, then stained with mouse anti acetylated tubulin (5 μg/ml, Sigma) by a method similar to that given above. Some cells were pretreated with 50 μg/ml antiBob37 overnight, 1 μg/ml pertussis toxin overnight, or 4.6 μg/ml U73122 for one hour before the gp120 was added. Untreated cells were also stained.
Similarly treated undifferentiated HT-29 cells (except that Fluo-4 was not added) were fixed in paraformaldehyde phosphate buffered saline one hour after gp120 treatment.

[3] = test system: HT-29-D4 cells; assay: Cytoskeletal organization and ultrastructure of HT-29-D4 cells (confocal, electron microscopy); format: cell-based, human
Method: HT-29-D4 cells grown on glass coverslips were fixed with 4% paraformaldehyde (w/v) in 0.1M phosphate buffer, pH 7.4, for 30 min at room temperature. The cells were then treated with 50 mM […] (15 min), rinsed with phosphate buffer containing 1% bovine serum albumin (BSA), and permeabilized with 0.2% Triton X-100 in phosphate buffer containing 5% BSA (30 min). For α-tubulin staining, coverslips were incubated in a humid atmosphere at 4° C. for 4 hr with the primary antibody (5 μg/ml) in phosphate buffer containing 1% BSA. After washing, the cells were incubated with fluoresecin-conjugated secondary antibodies for 90 min at 4° C. The coverslips were mounted in a Mowiol solution and analyzed by confocal microscopy (Leica TCS inverted laser scanning microscope) as previously reported (Delézay et al., 1997b). […]
The α-tubulin labeling was particularly intense in the medium part of the cells where it formed a complex network of microtubules surrounding the nucleus (a, b). […] Therefore, the presence of such cysts in HT-29-D4 cell monolayer was carefully analyzed by single staining with rhodamine-plalloidin. […]
Next, the ultrastructural changes induced by HIV-1 in differentiated HT-29-D4 cells was analyzed. […] The main ultrastructural change during incubation with virions or gp120 was the presence of intra- and inter-cellular lumina that could be detected in about 5% of the cells. […]

[4] = GalCer-gp120 interactions at the air-water interface (surface pressure); format: binding; conditions: gp120 5 nM in aqueous subphase
Method: A monomolecular film of GalCer was prepared at the air-water interface and gp120 purified from either IIIB (full squares), SEN (open circles) or 89.6 (full circles) isolates was added in the aqueous subphase at a concentration of 5 nM. The kinetics of the surface pressure increase induced by the viral glycoproteins are shown.
Galactosylceramide with an α-hydroxylated fatty acid (referred to as GalCer throughout this study) was either prepared from bovine brain (Sigma) or purified from HT-29-D4 membrane rafts (Fantini et al., 2000a). The surface pressure was measured with a microtensiometer (Kibron Inc., Finland) specially designed for studying protein-lipid interactions (Fantini et al., 2000a). The experiments were carried at 25° C. out in a laboratory equipped with a filtered air supply. A solution of GalCer was prepared extemporaneously in hexane:chloroform:methanol, 11:5:4 (v:v:v) at a concentration of 1 mg/ml. The lipid was carefully spread onto the meniscus of a pure water subphase (800 μl). The proteic ligand (GPR15/Bob peptides or HIV-1 gp120) was injected into the subphase with a 10 μl Hamilton syringe. The surface pressure was continuously measured as a function of time until reaching equilibrium corresponding to the maximal surface presure increase (Δπmax) expressed in mN/m.
In a recent study, it was shown that the interaction between GalCer and gp120 purified from HIV-1(IIIB) was very efficient, whereas gp120s from 89.6 and SEN isolates interacted very weakly (Hammache et al., 1998). The kinetics of this interaction are an important physicochemical parameter allowing the direct comparison of GalCer recognition by various gp120s. In the experiment shown in FIG. 11, gp120 purified from IIIB, SEN, or 89.6 was injected underneath a monomolecular film of GalCer at the air-water interface. The GalCer film mimics the topology of a GalCer raft as it is organized in the external leaflet of the plasma membrane. For this reason, the Langmuir film balance technique is one of the most sensitive and reliable for studying protein-glycolipid interactions (Maggio et al., 1994). […] The surface increase indicates a condensing effect of the gp120 on the lipidic film due to its interaction with GalCer molecules (Hammache et al., 1998). […] At this time however, the level of interaction indicated by the absolute increase of the surface pressure was identical to the one of gp120(IIIB). […] The GalCer-binding capacity of gp120(SEN) was reevaluated and shown to occur much more slowly, but not less efficiently, than of gp120(IIIB).

[5] = test system: HT-29-D4 cells; assay: Transepithelial resistance (TEER) of differentiated HT-29-D4 cells; format: cell-based, human; conditions: for TEER: 50 nM, serum-containing medium, mean SD of 4 experiments; for decrease of transepithelial resistance: after 16 hr
[6] = test system: apical sodium/glucose cotransporter (SGLT1); assay: Sodium-dependent glucose transport activity (ΔIsc after α-methylglucose) in HT-29-D4 cells; format: cell-based, human; conditions: for ΔIsc after α-methylglucose treatment: 50 nM, 3 mM α-methylglucose
Method: HT-29-D4 cells were cultured in two-compartment cell culture chambers on a polycarbonate filter (Transwell-clear, Catalog No. 3450, Costar) and analyzed for electrical parameters in modified custom made Ussing chambers as previously reported (Fantini et al., 1989). The chamber was maintained at 37° C. on a hot plate. Apical and basal compartments were filled with electrophysiological medium: 137 mM NaCl, 5.36 mM KCl, 0.4 mM Na2HPO4, 0.8 mM MgCl2, 1.8 mM CaCl2, 20 mM N-2-hydroxyethylpiperazine-N′-2-ethanesulfonic acid (HEPES), pH 7.4. Transepithelial potential difference was measured with Ag electrodes and continuously recorded using a voltage clamp unit (Physiologic Instrument). Bipolar current pulses (20 μA for 2 s, every 30 s) were passed through Ag electrodes to measure the transepithelial resistance (TEER), which was determined according to the Ohm's law (Delézay et al., 1997b). The sodium-dependent electrogenic glucose transport activity was measured as an increase of short-circuit current (ΔIsc) following apical incubation of HT-29-D4 cells with the nonmetabolizable analog of glucose α-methylglucose (Fantini et al., 2000a). Except when indicated, purified gp120s were incubated in the apical compartment of the cell culture chamber (total volume 1.5 ml instead of 10 ml for the basal compartment of the Ussing chamber device unit).
Differentiated HT-29-D4 cells cultured in Transwell chambers were either not treated (control) or treated with 50 nM of purified gp120 (IIIB isolate) for the time indicated in serum-containing culture medium. Transepithelial resistance (TEER) values and short-circuit current variations (ΔIsc) after incubation with 3 mM α-methylglucose (sodium-dependent glucose transport activity) were measured as described in Materials and Methods. The results are expressed as the mean SD of 4 separate experiments.

Compound: COc1ccc2c(c1)CC[C@@H]1[C@@H]2CC[C@]2(C)[C@@H](NCCCCCCN3C(=O)C=CC3=O)CC[C@@H]12 [U73122]
- inhibition of gp120-induced calcium signaling, in words [1]: No significant gp120IIIB-induced calcium signaling; also recorded: inhibited
- inhibition of gp120-induced microtubule loss [2]: inhibited and not

Compound: gp120(IIIB): surface envelope glycoprotein purified from HIV-1(IIIB) by lectin affinity chromatography
- cells with cysts / lumina ([3]; 1 hr exposure): about 5%
- α-tubulin staining ([3]; 1 hr of incubation): dramatic decrease
- interaction with GalCer film, in words [4]: exponential increase in the surface pressure
- time to equilibrium of surface pressure [4]: 45 min
- TEER ([5]; 16 hr): 300 ± 108 Q · cm^2
- TEER ([5]; 48 hr): 320 ± 267 Q · cm^2
- TEER enhancement (relative TEER) ([5]; 20 min after addition, electrophysiological medium, n=3): 1.60±0.17
- decrease of transepithelial resistance [5]: greater than 80%
- decrease of transepithelial resistance ([5]; listed as gp120 (IIIB isolate)): 81%
- decrease of TEER ([5]; after 48 hr): 74%
- time at which TEER had decreased to null values ([5]; continuous recording, electrophysiological medium): 12 h
- ΔIsc after α-methylglucose treatment ([6]; 16 hr): 0.35 ± 0.07 μA · cm^−2
- ΔIsc after α-methylglucose treatment ([6]; 48 hr): 0.29 ± 0.11 μA · cm^−2
- reduction of SGLT1 electrogenic activity ([6]; after 16 hr): 70%
- decrease of SGLT1 activity ([6]; after 48 hr): 80%

Compound: pertussis toxin
- inhibition of gp120-induced calcium signaling, in words [1]: No significant gp120IIIB-induced calcium signaling; also recorded: inhibited
- inhibition of gp120-induced microtubule loss [2]: inhibited and not
